Assay results taken from patent publication US12491170B2, “Stable treprostinil prodrugs” (United Therapeutics Corporation, priority 2020, dated 2025).
Like-named read-outs stand apart in the source and are kept apart here.

Assays:
[1] = Stability in liver microsomes, rat
Protocol: (§1) Mixed-gender human liver microsomes, male Sprague-Dawley rat liver microsomes, and male Beagle dog liver microsomes were purchased from XenoTech. The reaction mixture, minus NADPH, was prepared as described below. […] An aliquot of the reaction mixture (without cofactor) was equilibrated in a shaking water bath at 37° C. for 5 minutes. The reaction was initiated by the addition of cofactor, and the mixture was incubated in a shaking water bath at 37° C. Aliquots (200 μL) were withdrawn at 0, 10, 20, 30, and 60 minutes. Test article samples were immediately combined with 400 μL of ice-cold acetonitrile (ACN) to terminate the reaction. […] The samples were then mixed and centrifuged to precipitate proteins. Aliquots of the supernatant were removed, diluted 1:1 into distilled water containing internal standard, and analyzed by LC-MS/MS against calibration standards prepared in a matched matrix. All samples were analyzed for the dosed prodrugs as well as the drug, treprostinil. The test article concentration was compared to the concentration at time 0 to determine the percent of test article remaining at each time point. Half-lives and clearance were calculated using GraphPad software, fitting to a single-phase exponential decay equation.
(§2) • Liver Microsomes 0.5 mg/mL • NADPH (cofactor) 1 mM • Potassium Phosphate, pH 7.4 100 mM • Magnesium Chloride 5 mM • Test Article 1 μM

[2] = dog
[3] = Stability in cryopreserved hepatocytes, human; details: for AUC: human
Protocol: (§3) Mixed-gender human cryopreserved hepatocytes, male Sprague-Dawley rat cryopreserved hepatocytes, and male Beagle dog cryopreserved hepatocytes were purchased from XenoTech. The hepatocytes were thawed and prepared according to the vendor's instructions, pooled into Krebs Henseleit buffer (KHB, pH 7.4), and kept on ice prior to the experiments. […] The final DMSO content in the incubation mixture was ≤0.1%. […] Aliquots of the test article were withdrawn (n=1) at 0, 15, 30, 60, and 120 minutes. […] Aliquots of 7-HC were withdrawn (n=1) at 0 and 15 minutes. The reaction was immediately terminated by adding two volumes of ice-cold acetonitrile (ACN) to the test article samples and three volumes of ACN containing internal standard to the positive control samples. The samples were then mixed and centrifuged to precipitate proteins. An aliquot of the supernatant was then diluted with water and analyzed by LC-MS/MS against calibration standards prepared in a matched matrix. […] All test article samples were analyzed for the dosed prodrugs as well as the drug, treprostinil. The test article concentration was compared to the concentration at time 0 to determine the percent of test article remaining at each time point. Half-lives and clearance values were calculated using GraphPad software, fitting to a single-phase exponential decay equation.

[4] = Stability in cryopreserved hepatocytes, dog; details: for AUC: dog
Protocol: as §3

[5] = rat
[6] = Stability in cryopreserved hepatocytes, rat; details: for AUC: rat
Protocol: as §3

[7] = Stability in liver microsomes, dog
Protocol: as §1, §2

[8] = Stability in liver microsomes, human; details: for AUC: human
Protocol: as §1, §2

Row | Trep Concentration 0 min [1] [µM] | Trep Concentration 10 min [1] [µM] | Trep Concentration 20 min [1] [µM] | Trep Concentration 30 min [1] [µM] | Trep Concentration 60 min [1] [µM] | AUC [2] [µmol·min/L] | Trep Concentration (μM) 0 min [3] [µM] | Trep Concentration (μM) 15 min [3] [µM] | Trep Concentration (μM) 30 min [3] [µM] | Trep Concentration (μM) 60 min [3] [µM] | Trep Concentration (μM) 120 min [3] [µM] | AUC [3] [µmol·min/L] | Trep Concentration (μM) 0 min [4] [µM] | Trep Concentration (μM) 15 min [4] [µM] | Trep Concentration (μM) 30 min [4] [µM] | Trep Concentration (μM) 60 min [4] [µM] | AUC [4] [µmol·min/L] | AUC [5] [µmol·min/L] | Trep Concentration (μM) 0 min [6] [µM] | Trep Concentration (μM) 15 min [6] [µM] | Structure (SMILES) | other results
1 | 0.0226 | 0.033 | 0.0396 | 0.0481 | 0.0609 | 2.51 | 0 | 0.0671 | 0.102 | 0.123 | 0.137 | 12.95 | 0 | 0.00428 | 0.00492 | 0.00784 | 0.88 | 2.72 | 0 | 0.021 | CCCCCC(CCC1C(O)CC2Cc3c(cccc3OCC(=O)O)CC21)OC(=O)c1cccc(O)c1 (stereo not shown) [LX] | Trep Concentration (μM) 30 min [6]: 0.0343 µM; Trep Concentration (μM) 60 min [6]: 0.0477 µM; Trep Concentration (μM) 120 min [6]: 0.0634 µM; AUC [6]: 5.14 µmol·min/L; Trep Concentration 0 min [7]: 0.0189 µM; Trep Concentration 10 min [7]: 0.0283 µM; Trep Concentration 20 min [7]: 0.0363 µM; Trep Concentration 30 min [7]: 0.044 µM; Trep Concentration 60 min [7]: 0.059 µM; Trep Concentration 0 min [8]: 0.105 µM; Trep Concentration 10 min [8]: 0.14 µM; Trep Concentration 20 min [8]: 0.137 µM; Trep Concentration 30 min [8]: 0.126 µM; Trep Concentration 60 min [8]: 0.0865 µM; AUC [8]: 7.11 µmol·min/L
2 | 0.0251 | 0.0344 | 0.0421 | 0.0483 | 0.0527 | 38.15 | 0 | 0.198 | 0.294 | 0.338 | 0.335 | 34.85 | 0.00877 | 0.227 | 0.262 | 0.263 | 28.28 | 2.65 | 0 | 0.0238 | CCCCCC(CCC1C(O)CC2Cc3c(cccc3OCC(=O)O)CC21)OC(=O)C12CC3CC(CC(C3)C1)C2 (stereo not shown) [LXIX] | Trep Concentration (μM) 120 min [4]: 0.236 µM; Trep Concentration (μM) 30 min [6]: 0.0421 µM; Trep Concentration (μM) 60 min [6]: 0.0712 µM; Trep Concentration (μM) 120 min [6]: 0.119 µM; AUC [6]: 8.08 µmol·min/L; Trep Concentration 0 min [7]: 0.517 µM; Trep Concentration 10 min [7]: 0.57 µM; Trep Concentration 20 min [7]: 0.609 µM; Trep Concentration 30 min [7]: 0.696 µM; Trep Concentration 60 min [7]: 0.657 µM; Trep Concentration 0 min [8]: 0.321 µM; Trep Concentration 10 min [8]: 0.365 µM; Trep Concentration 20 min [8]: 0.367 µM; Trep Concentration 30 min [8]: 0.36 µM; Trep Concentration 60 min [8]: 0.252 µM; AUC [8]: 19.91 µmol·min/L

The next lines start with the molecule.

Row | Structure (SMILES) | Trep Concentration 0 min [1] [µM] | Trep Concentration 10 min [1] [µM] | Trep Concentration 20 min [1] [µM] | Trep Concentration 30 min [1] [µM] | Trep Concentration 60 min [1] [µM] | AUC [2] [µmol·min/L] | Trep Concentration (μM) 0 min [3] [µM] | Trep Concentration (μM) 15 min [3] [µM] | Trep Concentration (μM) 30 min [3] [µM] | Trep Concentration (μM) 60 min [3] [µM] | Trep Concentration (μM) 120 min [3] [µM] | AUC [3] [µmol·min/L] | Trep Concentration (μM) 0 min [4] [µM] | Trep Concentration (μM) 15 min [4] [µM] | Trep Concentration (μM) 30 min [4] [µM] | Trep Concentration (μM) 60 min [4] [µM] | AUC [4] [µmol·min/L] | AUC [5] [µmol·min/L] | Trep Concentration (μM) 0 min [6] [µM] | Trep Concentration (μM) 15 min [6] [µM] | other results
3 | CCCCCC(CCC1C(O)CC2Cc3c(cccc3OCC(=O)O)CC21)OC(=O)c1ccc(O)c(O)c1 (stereo not shown) [LXVI] | 0 | 0.00332 | 0.00368 | 0.00422 | 0.00722 | 0.17 | 0 | 0.0209 | 0.0147 | 0.0184 | 0.0237 | 2.18 | 0 | 0 | 0 | 0 | 0.16 | 0.26 | 0 | 0 | Trep Concentration (μM) 120 min [4]: 0.00519 µM; Trep Concentration (μM) 30 min [6]: 0 µM; Trep Concentration (μM) 60 min [6]: 0 µM; Trep Concentration (μM) 120 min [6]: 0 µM; AUC [6]: 0.00 µmol·min/L; Trep Concentration 0 min [7]: 0 µM; Trep Concentration 10 min [7]: 0 µM; Trep Concentration 20 min [7]: 0 µM; Trep Concentration 30 min [7]: 0.00396 µM; Trep Concentration 60 min [7]: 0.00602 µM; Trep Concentration 0 min [8]: 0.0131 µM; Trep Concentration 10 min [8]: 0.0155 µM; Trep Concentration 30 min [8]: 0.0168 µM; Trep Concentration 60 min [8]: 0.0141 µM; AUC [8]: 0.94 µmol·min/L
4 | CCCCCC(CCC1C(O)CC2Cc3c(cccc3OCC(=O)O)CC21)Oc1ccccc1C(=O)O (stereo not shown) [LVI] | 0 | 0 | 0 | 0 | 0 | 0.00 | 0 | 0 | 0 | 0 | 0 | 0.00 | 0 | 0.005 | 0.005 | 0.003 | 0.00 | 0.00 | 0 | 0 | Trep Concentration (μM) 120 min [4]: 0 µM; Trep Concentration (μM) 30 min [6]: 0 µM; Trep Concentration (μM) 60 min [6]: 0 µM; Trep Concentration (μM) 120 min [6]: 0 µM; AUC [6]: 0.00 µmol·min/L; Trep Concentration 0 min [7]: 0 µM; Trep Concentration 10 min [7]: 0 µM; Trep Concentration 20 min [7]: 0.003 µM; Trep Concentration 30 min [7]: 0 µM; Trep Concentration 60 min [7]: 0 µM; Trep Concentration 0 min [8]: 0 µM; Trep Concentration 10 min [8]: 0 µM; Trep Concentration 20 min [8]: 0 µM; Trep Concentration 30 min [8]: 0 µM; Trep Concentration 60 min [8]: 0 µM; AUC [8]: 0.00 µmol·min/L
5 | CCCCCC(CCC1C(O)CC2Cc3c(cccc3OCC(=O)O)CC21)OC(=O)COc1ccccc1 (stereo not shown) [LXV] | 0.889 | 0.898 | 0.885 | 0.888 | 0.738 | 49.22 | 0.0193 | 0.559 | 0.515 | 0.452 | 0.39 | 52.16 | 0.0135 | 0.484 | 0.465 | 0.406 | 47.28 | 51.11 | 0.0517 | 0.379 | Trep Concentration (μM) 120 min [4]: 0.373 µM; Trep Concentration (μM) 30 min [6]: 0.289 µM; Trep Concentration (μM) 60 min [6]: 0.237 µM; Trep Concentration (μM) 120 min [6]: 0.2 µM; AUC [6]: 29.24 µmol·min/L; Trep Concentration 0 min [7]: 0.903 µM; Trep Concentration 10 min [7]: 0.912 µM; Trep Concentration 20 min [7]: 0.864 µM; Trep Concentration 30 min [7]: 0.801 µM; Trep Concentration 60 min [7]: 0.728 µM; Trep Concentration 0 min [8]: 0.921 µM; Trep Concentration 10 min [8]: 0.762 µM; Trep Concentration 20 min [8]: 0.67 µM; Trep Concentration 30 min [8]: 0.594 µM; Trep Concentration 60 min [8]: 0.351 µM; AUC [8]: 36.07 µmol·min/L
